Results as given in patent US20250129334A1, “LINEAGE SPECIFICATION DURING STEM CELL TRANSITION” (Amniotics AB, priority 2021, published 2025).

Assays:
LT-HSCs = experiment: CFU assay of LT-HSCs sorted from fetal livers of treated embryos; format: in vivo, mice; conditions: DCA-treated embryos vs control and UK5099
Method: (§1) For fetal liver analysis, pregnant female C57Bl/6xB6.SJL mice were injected intraperitoneally at E9.5 with UK5099 (4 mg/kg) or DCA (200 mg/kg) or PBS (control). Embryos were harvested at E14.5 and individually weighed and processed. Fetal livers were dissected and homogenised in 800 μL ice cold PBS supplemented with 2% fetal bovine serum (FBS) and FL cells were washed in PBS with 2%/FBS. For the differentiated lineage panel, cells were stained with B220 and CD19 (B-cell markers)-PE, CD3e-APC, Ter119-PeCy7 and CD71-FITC and analyzed on a BD FACSARIA III. For the HSC panel, samples were first treated with ammonium chloride solution (STEMCELL Technologies, France) to lyse red blood cells, washed twice in ice cold PBS with 2% FBS, stained with CD3e, B220, Ter119, Gr1 (Lineage)-PeCy5, c-Kit-Efluor780, Sca1-BV421, CD48-FITC, CD150-BV605 and 7-AAD (for dead cell exclusion) and analyzed on a BD FACSARIA III. […] For plating of CFU assays, 100 LT-HSCs were sorted (gating strategy shown in FIG. 11, e) and resuspended in 3.0 mL Methocult M3434 (STEMCELL Technologies, France). Each mixture was divided onto 2 wells of a non-tissue culture treated 6-well plate. Following a 14-day incubation in a humidified incubator at 37° C., 5% CO2, 20% O2, colonies were morphologically distinguished and scored. […] Cells were stained with anti-cKit and anti-CD45 antibodies and analyzed on a BD LSRFortessa. […]

fetal liver = experiment: In vivo compound injection of pregnant mice, fetal liver analysis at E14.5
Method: as §1

| Structure (SMILES) | decrease in the BFU-E to CFU-GM ratio (LT-HSCs) [%] | frequency of phenotypic long-term HSCs (LT-HSCs) (fetal liver; LSK CD48-CD150+, UK5099 4 mg/kg, DCA 200 mg/kg) | in vivo EHT and hematopoiesis (fetal liver; UK5099 4 mg/kg i.p. at E9.5) |
| --- | --- | --- | --- |
| O=C(O)C(Cl)Cl [DCA, dichloroacetate] | 80 |  |  |
| N#CC(=Cc1cn(-c2ccccc2)c2ccccc12)C(=O)O [UK5099, 2-Cyano-3-(1-phenyl-1H-indol-3-yl)-2-propenoic acid] |  | not significantly affected | did not see a significant effect |
